target: Metabotropic glutamate receptor 3 (Homo sapiens, UniProt Q14832); test: Positive allosteric modulation of human mGluR3 expressed in HEK293 cells assessed as increase in glutamate-induced calcium mobilization preincubated for 10 mins followed by glutamate addition and measured for 3 mins by Fluo4-AM dye based FLIPR assay; format: functional, cell-based
Sequence (Q14832 whole entry): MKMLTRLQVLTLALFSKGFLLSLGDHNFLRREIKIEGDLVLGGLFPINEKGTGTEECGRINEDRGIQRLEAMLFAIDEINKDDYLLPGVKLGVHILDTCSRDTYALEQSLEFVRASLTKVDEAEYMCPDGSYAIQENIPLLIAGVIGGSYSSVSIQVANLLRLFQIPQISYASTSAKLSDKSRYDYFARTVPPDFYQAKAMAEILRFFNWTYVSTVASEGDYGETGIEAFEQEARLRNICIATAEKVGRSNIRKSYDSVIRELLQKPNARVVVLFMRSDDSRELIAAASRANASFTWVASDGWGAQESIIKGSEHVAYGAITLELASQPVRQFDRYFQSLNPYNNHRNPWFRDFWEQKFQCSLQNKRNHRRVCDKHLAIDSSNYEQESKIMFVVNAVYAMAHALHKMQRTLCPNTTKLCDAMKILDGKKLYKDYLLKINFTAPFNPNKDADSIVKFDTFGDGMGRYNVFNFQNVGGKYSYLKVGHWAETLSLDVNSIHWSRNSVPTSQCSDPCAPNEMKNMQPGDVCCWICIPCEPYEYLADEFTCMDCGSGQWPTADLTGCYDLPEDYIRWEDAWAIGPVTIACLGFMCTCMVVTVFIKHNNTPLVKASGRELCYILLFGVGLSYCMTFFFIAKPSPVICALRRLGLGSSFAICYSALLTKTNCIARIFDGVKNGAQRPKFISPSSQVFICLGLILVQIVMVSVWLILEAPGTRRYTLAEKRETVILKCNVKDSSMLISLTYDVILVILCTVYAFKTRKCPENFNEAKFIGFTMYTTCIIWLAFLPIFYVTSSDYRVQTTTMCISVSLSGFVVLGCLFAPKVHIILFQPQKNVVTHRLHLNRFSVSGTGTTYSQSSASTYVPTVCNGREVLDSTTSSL

**Q.** With `CN1C(=O)c2ncccc2-c2cc(-c3ccc(F)nc3)ccc2C12CC2` as the compound, how does the EC50 read?
**A.** < 100 nM

**Q.** How did the EC50 turn out when `CN1C(=O)c2ncccc2-c2cc(-c3ccc(F)cn3)ccc2C12CC2` was run?
**A.** < 100 nM

**Q.** With `COc1ccc2c(n1)C(=O)N(C)Cc1ccc(-c3ccc(F)nc3)cc1-2` as the compound, how does the EC50 read?
**A.** < 100 nM

**Q.** For `COCn1cc2c(n1)C(=O)N(C)C1(CC1)c1ccc(-c3ccc(F)nc3)cc1-2`, which EC50 is on record?
**A.** < 100 nM

**Q.** Which EC50 does the source give for `CN1C(=O)c2cccn2-c2cc(-c3ccc(F)nc3)ccc2C12CCC2` here?
**A.** < 100 nM

**Q.** For `CCn1cc2c(n1)C(=O)N(C)Cc1ccc(-c3cccnc3C)cc1-2`, which EC50 is on record?
**A.** 100 to 1000 nM

**Q.** How did the EC50 turn out when `COc1ccc2c(n1)C(=O)N(C)C1(CC1)c1ccc(-c3ccc(F)nc3)cc1-2` was run?
**A.** < 100 nM

**Q.** `COCn1cc2c(n1)C(=O)N(C)Cc1ccc(-c3ccc(F)cn3)cc1-2` was tested. Which EC50 did it give?
**A.** 100 to 1000 nM
